From article PMC6044835, “Expression, Purification, and Biochemical Characterization of the Flavocytochrome P450 CYP505A30 from Myceliophthora thermophila” (ACS Omega, 2017)
Where “and” joins values, the source holds several entries; their conditions need not be identical. Identical values can stand only once. Like-named read-outs stand apart in the source and are kept apart here.

Experiments:
[1] = molecular target: T1, CYP505A30 (Thermothelomyces thermophilus, UniProt G2QDZ3); assay: Stopped-flow kinetics of flavin reduction by NAD(P)H; format: biochemical, Myceliophthora thermophila
[2] = molecular target: T1, CYP505A30; assay: UV–visible spectral binding titration with intact CYP505A30; settings: for HS (%): extent of HS heme iron accumulated, intact CYP505A30, estimated to nearest 5%
[3] = molecular target: Myceliophthora thermophila flavocytochrome P450 CYP505A30 (P450-CPR fusion enzyme), intact (Myceliophthora thermophila); assay: SEC-MALS; 5 mg protein samples in buffer A (50 mM potassium phosphate, pH 7.0) containing 200 mM KCl; integrated Superdex 200 gel filtration followed at once by a DAWN EOS MALLS detector; monomer and dimer of the intact enzyme
[4] = molecular target: T2, CYP505A30 heme domain (Thermothelomyces thermophilus, UniProt G2QDZ3); assay: UV–visible spectral binding titration with CYP505A30 heme domain; settings: for HS (%): extent of HS heme iron accumulated, heme domain, estimated to nearest 5%
[5] = molecular target: T1, CYP505A30; assay: Steady-state fatty acid-dependent NADPH oxidation
[6] = molecular target: T1, CYP505A30
[7] = molecular target: T2, CYP505A30 heme domain
[8] = molecular target: T1, CYP505A30; settings: for kcat: reduction of the electron acceptor, 25 °C
[9] = tested on: P450 BM3; parameters: method as in PMID 1727637; settings: cited from earlier work
[10] = molecular target: T1, CYP505A30; settings: CYP505A30, GC–MS
[11] = tested on: P450 BM3; settings: P450 BM3, similar conditions; cited from earlier work
[12] = molecular target: T1, CYP505A30; assay: UV-visible spectral binding titration of imidazole-type inhibitors (Soret red shift by distal heme iron coordination) to intact CYP505A30 in 50 mM potassium phosphate pH 7.0 (25 °C stated for the substrate titrations), hyperbolic fit for bifonazole.; parameters: gene MYCTH_101224; intact CYP505A30, amino acids 1-1080, N-terminal hexahistidine tag (pET15b), expressed in E. coli; settings: read-out: KD values (azole/imidazole inhibitors)
Description: Figure 5 UV–visible spectroscopic analysis of CYP505A30 and its heme domain. […] The sodium dithionite-reduced ferrous form (dotted line) has its Soret maximum at 411 nm and a single visible region absorbance band at 546 nm. The ferrous, CO-bound form (thin solid line) has its Soret maximum at 450 nm and a visible band at 550 nm. The ferric heme NO-bound form (dashed line) has a Soret maximum at 434 nm and visible region bands at 543 and 573 nm. […] For clarity, the visible region is also shown at 5× magnification. […] The substrate-free heme domain (4.9 μM) is shown with a thick solid line. […] Each ΔAbs point is derived from the value of the difference peak absorbance maximum (at 388 nm) minus the difference trough absorbance minimum (at 417 nm). […]
The wavelengths of the absorbance minimum and maximum were identified from the difference spectra, and a maximal induced absorbance change (ΔAmax) at each point in the titration was determined by subtracting the absorbance at the wavelength minimum from that at the absorbance maximum, using the same wavelength pair throughout each titration. ΔAmax values were then plotted against ligand concentration, and data were fitted using either a hyperbolic (Michaelis–Menten) function or the Morrison function for tight-binding ligands, to determine dissociation constants (KD values), as described previously.[38],[52]

[13] = substrate: CCCCCCCCCCCCCCC(=O)O; assay: purified protein, by the assay type; settings: other: fatty acid-induced NADPH oxidation, 25 °C
[14] = substrate: CCCCC/C=C\C/C=C\C/C=C\C/C=C\CCCC(=O)O; assay: purified protein, by the assay type; settings: other: fatty acid-induced NADPH oxidation, 25 °C
[15] = substrate: CCCCCCCCCCCCCC(=O)O; assay: purified protein, by the assay type; settings: other: fatty acid-induced NADPH oxidation, 25 °C
[16] = substrate: CCCCCCCCCCCC(=O)O; assay: purified protein, by the assay type; settings: other: fatty acid-induced NADPH oxidation, 25 °C
[17] = fatty acid-induced NADPH oxidation, 25 °C, 200 μM NADPH
[18] = KD, substrate binding to intact CYP505A30, heme absorbance change, 25 °C
[19] = fatty acid-dependent NADPH oxidation

Molecule: NC(=O)C1=CN([C@@H]2O[C@H](COP(=O)(O)OP(=O)(O)OC[C@H]3O[C@@H](n4cnc5c(N)ncnc54)[C@H](OP(=O)(O)O)[C@@H]3O)[C@@H](O)[C@H]2O)C=CC1 [NADPH, reduced nicotinamide adenine dinucleotide phosphate]
- gradient of kobs vs temperature ([1]; 10 to 35 °C, 1 mM NADPH): 14.5 ± 1.5 s^–1 °C^–1
- klim flavin reduction ([1]; 10 °C): ~82 s^–1
- kobs flavin reduction ([1]; 10 °C, across [NADPH] range up to 1.2 mM): 82.4 ± 9.1 s^–1
- klim flavin reduction ([1]; 25 °C): ~250 s^–1
- kobs flavin reduction (highest rate constant) ([1]; 35 °C, 1 mM NADPH): 441 ± 11 s^–1

Molecule: c1ccc(-n2ccnc2)cc1 [1-phenylimidazole]
- Kd ([2]; KD, imidazole-based inhibitors, distal coordination of heme iron, intact CYP505A30): 3.4 ± 0.2 µM

Molecule: Myceliophthora thermophila flavocytochrome P450 CYP505A30 (P450-CPR fusion enzyme), intact
- stoichiometry N [3]: 2

Molecule: CCCCCCCCCCCCC(=O)O [tridecanoic acid]
- Kd [4]: 4.8 ± 0.3 µM
- kcat [5, 17]: 5.0 ± 0.3 s^–1
- HS (%) [6]: 65%
- Kd [2, 18]: 2.7 ± 0.3 µM
- HS (%) [7]: 30%

Molecule: CCCCCCCCCC(=O)O [decanoic acid]
- HS (%) [6]: 30%
- Kd ([2]; KD): 21.1 ± 2 µM

Molecule: CCCCCCCCCCCCCCCCCC(=O)O [octadecanoic acid]
- Kd [4]: 5 ± 0.7 µM
- HS (%) [4]: 10%
- Kd [2]: 11.9 ± 1 µM
- HS (%) [2]: 15%

Molecule: CCCCCCCCCCCCCCCCC(=O)O [heptadecanoic acid]
- Kd [4]: 8.7 ± 0.8 µM
- HS (%) [4]: 20%
- Kd [2]: 4.1 ± 0.7 µM
- HS (%) [2]: 10%

Molecule: cytochrome c: Cytochrome c (horse heart; Sigma-Aldrich), electron acceptor substrate for CPR enzymes
- fold slower kcat than the BM3 enzyme ([8]; BM3 under similar conditions): approximately 7.5 fold
- Km ([8]; read-out: KM (electron acceptor), NADPH as electron donor): 79.3 ± 10.3 µM
- kcat ([8]; NADH as electron donor): 29.5 ± 2.4 s^–1
- kcat ([8]; NADPH as electron donor): 29.7 ± 0.7 s^–1

Molecule: NC(=O)C1=CN([C@@H]2O[C@H](COP(=O)(O)OP(=O)(O)OC[C@H]3O[C@@H](n4cnc5c(N)ncnc54)[C@H](O)[C@@H]3O)[C@@H](O)[C@H]2O)C=CC1 [NADH, reduced nicotinamide adenine dinucleotide]
- klim flavin reduction ([1]; 10 °C): 42.0 ± 3.2 s^–1

Molecule: CCCCCCCCCCCCCCCC(=O)O [hexadecanoic acid]
- Kd [4]: 1 ± 0.4 µM
- HS (%) [4]: 55%
- Kd [2, 18]: 10.5 ± 0.2 µM
- HS (%) [2]: 80%

Molecule: CCCCCCCCCCCCCCCC(=O)NCC(=O)O [N-palmitoylglycine]
- HS (%) [4]: 75%
- HS (%) [2]: 95%

Molecule: CCCCCCCCCCCCCC(=O)O [tetradecanoic acid]
- Kd [4]: 3.9 ± 0.3 µM
- HS (%) [4]: 85%
- ω-1 hydroxylated product proportion [9]: 58%
- ω-2 hydroxylated product proportion [9]: 21%
- ω-3 hydroxylated product proportion [9]: 21%
- kcat [5, 17]: 1.21 ± 0.1 s^–1
- Kd [2, 18]: 7.4 ± 0.2 µM
- HS (%) [2]: 80%
- ω-1 hydroxylated product proportion [10]: 63%
- ω-2 hydroxylated product proportion [10]: ~28%
- ω-3 hydroxylated product proportion [10]: 9%
- ω-1 hydroxylated product proportion ([10]; listed as myristic acid): approximately 63%
- kcat [11]: 30.8 ± 1.5 s^–1

Molecule: CCCCCCCCCCCCCCC(=O)O [pentadecanoic acid]
- Kd [4]: 1.1 ± 0.3 µM
- HS (%) [4]: 90%
- KD (Michaelis–Menten fit of steady-state NADPH oxidation) [5, 19]: 7.8 µM
- kcat [5, 19]: ~450 min^–1
- Kd [2]: 4.4 ± 0.6 µM
- HS (%) [2]: 85%

Molecule: Clc1ccc(COC(Cn2ccnc2)c2ccc(Cl)cc2Cl)cc1 (stereo not shown) [econazole]
- Kd ([2]; KD): 10 ± 0.9 µM

Molecule: c1ccc(-c2ccc(C(c3ccccc3)n3ccnc3)cc2)cc1 (stereo not shown) [bifonazole]
- Kd ([2]; KD): 69 µM and 69.1 µM

Molecule: c1c[nH]cn1 [imidazole]
- Kd [12]: 723 µM

B1: CYP505A30 (Thermothelomyces thermophilus ATCC 42464) (protein)
chain: MADKTTETVPIPGPPGLPLVGNALAFDSELPLRTFQEFAEEYGEIYRLTLPTGTTLVVSSQALVHELCDDKRFKKPVAAALAEVRNGVNDGLFTAREEEPNWGIAHRILMPAFGPASIQGMFTEMHEIASQLALKWARHGPDTPIFVTDDFTRLTLDTLALCTMNFRFNSYYHDELHPFINAMGNFLTESGARAMRPAITSIFHQAANRKYWEDIEVLRKTAQGVLDTRRKHPTNRKDLLSAMLDGVDAKTGQKLSDSSIIDNLITFLIAGHETTSGLLSFAFYLLIKHQDAYRKAQEEVDRVIGKGPIKVEHIKKLPYIAAVLRETLRLCPTIPIINRAAKQDEVIGGKYAVAKDQRLALLLAQSHLDPAVYGETAKQFIPERMLDENFERLNREYPDCWKPFGTGMRACIGRPFAWQEAVLVMAMLLQNFDFVLHDPYYELHYKQTLTTKPKDFYMRAILRDGLTATELEHRLAGNAASVARSGGGGGGPSKPTAQKTSPAEAKPMSIFYGSNTGTCESLAQRLATDAASHGYAAAAVEPLDTATEKLPTDRPVVIITASFEGQPPDNAAKFCGWLKNLEGDELKNVSYAVFGCGHHDWSQTFHRIPKLVHQTMKAHGASPICDEGLTDVAEGNMFTDFEQWEDDVFWPAVRARYGAAGAVAETEDAPGSDGLNIHFSSPRSSTLRQDVREATVVGEALLTAPDAPPKKHIEVQLPDGATYKVGDYLAVLPVNSKESIGRVMRKFQLSWDSHVTIASDRWTALPTGTPVPAYDVLGSYVELSQPATKRGILRLADAAEDEATKAELQKLAGDLYTSEISLKRASVLDLLDRFPSISLPFGTFLSLLPPIRPRQYSISSSPLNDPSRATLTYSLLDSPSLANPSRRFVGVATSYLSSLVRGDKLLVSVRPTHTAFRLPDEDKMGETAIICVGAGSGLAPFRGFIQERAALLAKGTQLAAALLFYGCRSPEKDDLYRDEFDKWQESGAVDVRRAFSRVDSDDTEARGCRHVQDRLWHDREEVKALWDRGARVYVCGSRQVGEGVKTAMGRIVLGEEDAEDAISKWYETVRNDRYATDVFD
- Km [13]: 7.8 ± 2.1 µM
- kcat [13]: 7.5 ± 0.7 s⁻¹
- kcat/Km [13]: 960000 M⁻¹ s⁻¹
- Km [14]: 9.2 ± 0.5 µM
- kcat [14]: 2 ± 0.1 s⁻¹
- kcat/Km [14]: 220000 M⁻¹ s⁻¹
- Km [15]: 7.7 ± 1.9 µM
- kcat [15]: 1.2 ± 0.1 s⁻¹
- kcat/Km [15]: 160000 M⁻¹ s⁻¹
- Km [16]: 21.2 ± 2.4 µM
- kcat [16]: 4.8 ± 0.2 s⁻¹
- kcat/Km [16]: 230000 M⁻¹ s⁻¹
